Patent US8658661B2, “Oxadiazole inhibitors of leukotriene production” (Boehringer Ingelheim International GmbH, priority 2010, dated 2014)
pIC50: −log10 of the molar value.

How the values were obtained:
[1] = target: T1, recombinant human FLAP protein (Homo sapiens, UniProt P20292); assay: FLAP binding assay (SPA, displacement of [125I]L-691,831); settings: membranes of sf9 cells expressing recombinant human FLAP; [125I]L-691,831 probe; read-out: FLAP binding IC50
T1 construct: made in house; host or cells: Sf9 insect cells (100,000×g membrane pellet used)
T1 sequence (P20292 1-161): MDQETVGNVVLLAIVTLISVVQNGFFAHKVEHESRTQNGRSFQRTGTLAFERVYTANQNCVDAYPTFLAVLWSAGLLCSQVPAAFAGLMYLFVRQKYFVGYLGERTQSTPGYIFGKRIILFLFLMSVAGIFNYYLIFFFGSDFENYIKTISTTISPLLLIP
Method: Assessment of Biological Properties 1. Binding Assay
Compounds are assessed for the ability to bind to FLAP in a binding assay that measures compound-specific displacement of an iodinated (^125I) FLAP inhibitor via a Scintillation Proximity Assay format (adapted from S. Charleson et al., Mol. Pharmacol., 1992, 41, 873-879).
Cell pellets produced from sf9 insect cells expressing recombinant human FLAP protein are resuspended in buffer A [15 mM Tris-HCl (pH 7.5), 2 mM MgCl2, 0.3 mM EDTA, 1 mM PMSF]. The cells are lysed with a Dounce homogenizer and the material is centrifuged at 10,000×g for 10 minutes. The supernatant is then collected and centrifuged at 100,000×g for 60 minutes. To prepare membrane protein for an assay, an aliquot of the 100,000×g pellet is resuspended in 1 ml of buffer A, Dounce homogenized, and finally subjected to polytron mixing (30 seconds). Membrane protein (25 μl, 5 μg) is mixed with WGA SPA beads (Amersham) and stirred for 1 h. […] (final concentrations: beads, 200 μg/well; protein, 5 μg/well; [^125I] probe, 0 08 nM/well (17 nCi/well). The plates are shaken for 2 h before reading on a Microbeta plate reader. Non-specific binding is determined by the addition of 10 μM cold L-691,831 compound.

[2] = system: synthesis of LTB4 in human whole blood; assay: Human whole blood assay (inhibition of LTB4 synthesis, calcimycin stimulated); assay type: cell-based; settings: heparinized human whole blood, calcimycin 20 μM, plasma LTB4
Method: Compounds are additionally tested in a human whole blood assay to determine their ability to inhibit the synthesis of LTB4 in a cellular system. Compounds are combined with heparinized human whole blood and incubated for 15 minutes at 37° C. Calcimycin (20 μM final, prepared in phosphate-buffered saline, pH 7.4) is then added and the mixture is incubated for another 30 minutes at 37° C. The samples are centrifuged for 5 min at low speed (1500×g) and the plasma layer is removed. Plasma LTB4 concentrations are then measured using an antibody-based homogenous time-resolved fluorescence method (CisBio, Bedford, Mass.).

Structure (SMILES)	pIC50 [1]	pIC50 [2]
CC(C)C(C)(c1ccc(-c2cnc(N)nc2)cc1)c1noc(-c2cnn(C)c2)n1 (centres unmarked) [Example 15, 5-(4-{3-methyl-2-[5-(1-methyl-1H-pyrazol-4-yl)-1,2,4-oxadiazol-3-yl]butan-2-yl}1phenyl)pyrimidin-2-amine]	8.70	7.34
CC(C)C(C)(c1ccc(-c2cnc(N)nc2)cc1)c1noc(-c2ncc[nH]2)n1 (centres unmarked) [Example 20, 5-(4-{2-[5-(1H-imidazol-2-yl)-1,2,4-oxadiazol-3-yl]-3-methylbutan-2-yl}phenyl)pyrimidin-2-amine]	8.00	5.49
CC(c1ccc(-c2cnc(N)nc2)cc1)(c1noc(-c2cn[nH]c2)n1)C1CC1 (centres unmarked) [Example 21, 5-(4-{1-cyclopropyl-1-[5-(1H-pyrazol-4-yl)-1,2,4-oxadiazol-3-yl]ethyl}phenyl)pyrimidin-2-amine]	8.26	7.06
Cn1cc(-c2nc(C(C)(c3ccc(-c4cnc(N)nc4)cc3)C3CC3)no2)cn1 (centres unmarked) [Example 22, 5-(4-{1-cyclopropyl-1-[5-(1-methyl-1H-pyrazol-4-yl)-1,2,4-oxadiazol-3-yl]ethyl}phenyl)pyrimidin-2-amine]	8.38	7.34
CC(c1ccc(-c2cnc(N)nc2)cc1)(c1noc(-c2cc[nH]n2)n1)C1CC1 (centres unmarked) [Example 25, 5-(4-{1-cyclopropyl-1-[5-(1H-pyrazol-3-yl)-1,2,4-oxadiazol-3-yl]ethyl}phenyl)pyrimidin-2-amine]	8.22	6.77
Cn1ccc(-c2nc(C(C)(c3ccc(-c4cnc(N)nc4)cc3)C3CC3)no2)n1 (centres unmarked) [Example 26, 5-(4-{1-cyclopropyl-1-[5-(1-methyl-1H-pyrazol-3-yl)-1,2,4-oxadiazol-3-yl]ethyl}phenyl)pyrimidin-2-amine]	8.04	6.80

Second part, the compound after the results:

pIC50 [1]	pIC50 [2]	Structure (SMILES)
8.60	6.96	CC(C)[C@](C)(c1ccc(-c2cnc(N)nc2)cc1)c1noc(-c2ccn(C)n2)n1 [Example 16, 5-(4-{(2R)-3-methyl-2-[5-(1-methyl-1H-pyrazol-3-yl)-1,2,4-oxadiazol-3-yl]butan-2-yl}phenyl)pyrimidin-2-amine]
7.62	6.29	CC(C)[C@@](C)(c1ccc(-c2cnc(N)nc2)cc1)c1noc(-c2ccn(C)n2)n1 [Example 17, 5-(4-{(2S)-3-methyl-2-[5-(1-methyl-1H-pyrazol-3-yl)-1,2,4-oxadiazol-3-yl]butan-2-yl}phenyl)pyrimidin-2-amine]
8.48	6.49	CC(C)C(C)(c1ccc(-c2cnc(N)nc2)cc1)c1noc(-c2ccnn2C)n1 (centres unmarked) [Example 18, 5-(4-{3-methyl-2-[5-(1-methyl-1H-pyrazol-5-yl)-1,2,4-oxadiazol-3-yl]butan-2-yl}phenyl)pyrimidin-2-amine]
8.24	6.59	CC(C)C(C)(c1ccc(-c2cnc(N)nc2)cc1)c1noc(-c2ccn[nH]2)n1 (centres unmarked) [Example 19, 5-(4-{3-methyl-2-[5-(1H-pyrazol-5-yl)-1,2,4-oxadiazol-3-yl]butan-2-yl}phenyl)pyrimidin-2-amine]
8.16	6.77	CC(C)[C@](C)(c1ccc(-c2cnc(N)nc2)cc1)c1noc(-c2ccn[nH]2)n1 [Example 23, 5-(4-{(2R)-3-methyl-2-[5-(1H-pyrazol-5-yl)-1,2,4-oxadiazol-3-yl]butan-2-yl}phenyl)pyrimidin-2-amine]
7.72	6.39	CC(C)[C@@](C)(c1ccc(-c2cnc(N)nc2)cc1)c1noc(-c2ccn[nH]2)n1 [Example 24, 5-(4-{(2S)-3-methyl-2-[5-(1H-pyrazol-5-yl)-1,2,4-oxadiazol-3-yl]butan-2-yl}phenyl)pyrimidin-2-amine]
7.92	6.48	Cn1nccc1-c1nc(C(C)(c2ccc(-c3cnc(N)nc3)cc2)C2CC2)no1 (centres unmarked) [Example 27, 5-(4-{1-cyclopropyl-1-[5-(1-methyl-1H-pyrazol-5-yl)-1,2,4-oxadiazol-3-yl]ethyl}phenyl)pyrimidin-2-amine]
